Source: patent US11878047B2, “ATF5 peptide variants and uses thereof” (Sapience Therapeutics, Inc., priority 2018, dated 2024)
Read-outs that look alike come from different tables or passages of the source. Ends that are not written are not given here.

Assays:
Format in all cases: cell-based, human
[1] = tested on: neoplastic cells / wide range of tumor cell types; experiment: Cytotoxic activity across tumor cell types
Description: ST-13 was further examined in various human cancer cell lines, as was a second retro-inverso variant, ST-14. Suspension cells (HL60, AML14, or SET2) were set at a density of 3.5×10^3 cells/well in 150 μL of RPMI+1.5% fetal bovine serum (FBS) in a tissue culture-treated 96 well dish. ATF5 peptide, reconstituted at a concentration of 10 mg/mL in 20 mM His, pH 7.5, was added to each well at a volume of 50 μL to a final concentration range of 0-80 μM. Cells were incubated with peptide for 48 hours at 37° C. Cell viability was quantified by flow cytometry using an Abcam Annexin V FITC apoptosis detection kit. […] Cells were analyzed by BD Accuri C6 Plus flow cytometer to detect Annexin V-FITC binding (Ex=488 nm; Em=530 nm) using FITC signal detector, and to detect PI staining using the phycoerythrin emission signal detector. Percentage of Annexin V^low and PI^low were quantified and presented as % Viability. EC50 values were calculated using GraphPad Prism v.7 XML. […] Cell viability was determined as described above for suspension cells or by MTT assay (MCF7 cells). Alternatively, cells were gently removed from the cell culture plate following trypsinization with 2.5% trypsin, and cell viability was quantified by flow cytometry using an Abcam Annexin V FITC apoptosis detection kit, as described above.

HL60 cells = experiment: HL60 cell viability (cytotoxicity) assay, Annexin V FITC/PI flow cytometry
Description: HL60 PML suspension cells were set at a density of 3.5×10^3 cells/well in 150 μL of RPMI+1.5% fetal bovine serum (FBS) in a 96 well dish. ST-3, reconstituted at a concentration of 10 mg/mL in 20 mM His, pH 7.5, was added to each well at a volume of 50 μL to a final concentration range of 0-80 μM. Cells were incubated with ST-3 for 48 hours at 37° C. Cell viability was quantified by flow cytometry using an Abcam Annexin V FITC apoptosis detection kit. Briefly, cells were washed with PBS and resuspended in 1× assay buffer containing Annexin V FITC and propidium iodide (PI). Annexin V detects apoptotic cells, and PI stains dead cells. After staining, apoptotic cells show green fluorescence, dead cells show red and green fluorescence, and live cells show little or no fluorescence. Cells were selected for analysis based on forward scatter (FSC) vs. side scatter (SSC), and analyzed by BD Accuri C6 Plus flow cytometer to detect Annexin V-FITC binding (Ex=488 nm; Em=530 nm) using FITC signal detector and PI staining by the phycoerythrin emission signal detector. Percentage of Annexin V^low and PI^low were quantified and presented as % Viability.
Lyophilized ST-3 or ST-3 with glycine (ST-4) or alanine (ST-5) substituted for cysteine at amino acid position 21 was freshly reconstituted in histidine buffer to a stock solution of 5 mg/mL and added to cells at a final concentration range of 0-40 μM. Cells were incubated with ATF5 peptide for 48 hours prior to quantification of cell viability.
(§1) ST-13 was further examined in various human cancer cell lines, as was a second retro-inverso variant, ST-14. Suspension cells (HL60, AML14, or SET2) were set at a density of 3.5×10^3 cells/well in 150 μL of RPMI+1.5% fetal bovine serum (FBS) in a tissue culture-treated 96 well dish. ATF5 peptide, reconstituted at a concentration of 10 mg/mL in 20 mM His, pH 7.5, was added to each well at a volume of 50 μL to a final concentration range of 0-80 μM. Cells were incubated with peptide for 48 hours at 37° C. Cell viability was quantified by flow cytometry using an Abcam Annexin V FITC apoptosis detection kit. Briefly, cells were washed with PBS and resuspended in 1× assay buffer containing Annexin V FITC and propidium iodide (PI). Cells were analyzed by BD Accuri C6 Plus flow cytometer to detect Annexin V-FITC binding (Ex=488 nm; Em=530 nm) using FITC signal detector, and to detect PI staining using the phycoerythrin emission signal detector. Percentage of Annexin V^low and PI^low were quantified and presented as % Viability. EC50 values were calculated using GraphPad Prism v.7 XML.

[2] = tested on: AML14 acute myeloid leukemia cells
Description: as §1

[3] = tested on: SET2 acute myeloid leukemia cells
Description: as §1

MCF7 breast cancer cells = tested on: MCF7 breast cancer cells
Description: Additionally, adherent A375, MCF7, U251, DU145, U87, and A549 cells were set at a density of 3.5×10^3 cells/well in 200 μL of media on day −1. On day 0, media was removed and replenished with 150 μL of fresh media, and cells were treated with ATF5 peptide as described. Following a 48-hour incubation at 37° C., floating cells were collected, adherent cells were washed with Dulbecco's Phosphate Buffered Saline (DPBS), dissociated from the dish with 50 μL 2.5% trypsin at RT, and combined with floating cells. Cell viability was determined as described above for suspension cells or by MTT assay (MCF7 cells). Alternatively, cells were gently removed from the cell culture plate following trypsinization with 2.5% trypsin, and cell viability was quantified by flow cytometry using an Abcam Annexin V FITC apoptosis detection kit, as described above.

[4] = HL60 cell viability assay, 48 hours

## CC[C@@H](C)[C@@H](NC(=O)[C@@H](CCCCN)NC(=O)[C@H](NC(=O)[C@@H](Cc1c[nH]c2ccccc12)NC(=O)[C@@H](Cc1ccccc1)NC(=O)[C@@H](CCC(N)=O)NC(=O)[C@@H](CC(N)=O)NC(=O)[C@@H](CCCNC(=N)N)NC(=O)[C@@H](CCCNC(=N)N)NC(=O)[C@@H](CCSC)NC(=O)[C@@H](CCCCN)NC(=O)[C@@H](Cc1c[nH]c2ccccc12)NC(=O)[C@@H](CCCCN)NC(=O)[C@@H](CCCCN)NC(=O)[C@@H](CC(C)C)NC(=O)[C@@H](CCC(=O)O)NC(=O)CNC(=O)[C@@H](CCCNC(=N)N)NC(=O)[C@@H](C)NC(=O)[C@@H](CCC(N)=O)NC(=O)CNC(=O)[C@@H](CC(C)C)NC(=O)[C@@H](CCCNC(=N)N)NC(=O)[C@@H](C)NC(=O)[C@@H](CCC(=O)O)NC(=O)[C@@H](CC(C)C)NC(=O)[C@@H](CCCNC(=N)N)NC(=O)[C@@H](CCC(=O)O)NC(=O)[C@@H](CC(C)C)NC(=O)[C@@H](CCC(=O)O)NC(=O)[C@@H](CCC(=O)O)NC(=O)[C@@H](CCCNC(=N)N)NC(=O)[C@@H](C)NC(=O)[C@@H](CCC(=O)O)NC(=O)[C@@H](C)NC(=O)[C@H](N)C(C)C)[C@H](C)CC)C(=O)N[C@H](CCC(N)=O)C(=O)N[C@H](CCCNC(=N)N)C(=O)O [ST-13]
[1]
  cytotoxic activity in tumor / neoplastic cells: significant cytotoxic activity
HL60 cells
  cytotoxic activity compared with other peptides: comparable activity to ST-11, and superior activity to ST-3
[2]
  EC50: < 1 µM
[3]
  EC50: 17.7 µM
MCF7 breast cancer cells
  EC50: < 1 µM

## RQIKIWFQNRRMKWKKLEGEAQGLEARNRELKERAESV [ST-5]
HL60 cells; [4]
  cytotoxic activity compared with other peptides: attenuated but not ablated

## RQIKIWFQNRRMKWKKLEGECQGLEARNRELKERAEAV [ST-6]
HL60 cells; [4]
  cytotoxic activity compared with other peptides: comparable activity to ST-3

## RQIKIWFQNRRMKWKKLEGECQGLEARNRELKERAESV [ST-3, reference compound]
[1]
  cytotoxic activity in tumor / neoplastic cells: induces cell death in neoplastic cells

## RQIKIWFQNRRMKWKKLEGEGQGLEARNRELKERAESV [ST-4]
HL60 cells; [4]
  cytotoxic activity compared with other peptides: attenuated but not ablated

## RQIKIWFQNRRMKWKKLEGRAQGLRAELRELEERAEAV [ST-11]
HL60 cells; [4]
  cytotoxic activity compared with other peptides: improved cytotoxic activity over ST-3

## RQIKIWFQNRRMKWKKLEGRCQGLRAELRELEERAEAV [ST-10]
HL60 cells; [4]
  cytotoxic activity compared with other peptides: comparable to that of ST-9

## RQIKIWFQNRRMKWKKLEGRCQGLRAENRELEERAESV [ST-9]
HL60 cells; [4]
  cytotoxic activity compared with other peptides: significantly increased over that of ST-3
